Results on 26 molecules are retold here after patent publication US12492337B2, “Fluorescent probe, preparation method therefor and use thereof” (FLUORESCENCE DIAGNOSIS (SHANGHAI) BIOTECH COMPANY, priority 2017, dated 2025).

The nature of data set [1]: Quantum yield of free probe not reacted with protein tag. It counts as physicochemical. On the procedure:
(§1) A probe was mixed with a corresponding HaloTag protein tag to obtain a mixed sample. The final concentration of the probe in the mixed sample was 5 μM and the final concentration of the protein tag was 10 μM. The mixed sample was incubated at 37° C. for 1 hour, and the sample was detected using a fluorescence spectrophotometer.

A further data set has as its system HaloTag protein tag. As to the kind of experiment: Probe mixed with HaloTag protein tag, fluorescence spectrophotometer (Example 86). It counts as biochemical. To be noted: 5 μM probe, 10 μM protein tag, 37° C., 1 hour; for Fluorescence enhancement: fluorescence activation multiple after binding protein tag; for Emission/nm: fluorescence emission wavelength. The method, then: as §1

Data set [2] in a line: Viscosity responsiveness: fluorescence intensity in glycerol versus methanol. It counts as physicochemical. The note with it: fluorescence intensity in glycerol to that in methanol. On the procedure:
The above-mentioned viscosity-responsive fluorescent dye means that the fluorescence intensity of the dye responds to the viscosity of the solution. As the viscosity of the solution increases, the fluorescence intensity increases. Optionally, the viscosity-responsive fluorescent dye is an organic dye molecule which, under the same concentration and excitation wavelength, at 25° C. has a ratio • of the maximum fluorescence emission intensity of the dye in glycerol to the fluorescence intensity in methanol of greater than 2, optionally greater than 5, optionally greater than 10. The concentration of the viscosity-responsive dye ranges from 1×10^−7 M to 1×10^−5 M.

In the case of `CN(C)c1ccc(-c2ccc(/C=C(\C#N)C(=S)NCCOCCOCCCCCCCl)s2)s1` [Probe 84], the “The quantum yield of the free probe” value in data set [1] was under 0.001. In the data set with HaloTag protein tag, the “The quantum yield after binding to Halo-tag” value came out at 0.47, the Fluorescence enhancement turned out to be 431 and the Emission/nm came to 680 nm. The ratio in data set [2] was 522.
Regarding `CN(CCO)c1ccc2cc(/C=C(\C#N)C(=O)NCCOCCOCCCCCCCl)sc2c1` [Probe 65], in data set [1], the “The quantum yield of the free probe” value is given as under 0.001. For the same molecule, in the data set on HaloTag protein tag, the “The quantum yield after binding to Halo-tag” value was 0.66, the Fluorescence enhancement was found to be 798 and the Emission/nm worked out at 570 nm. The ratio in data set [2] was found to be 391.
On to `CN(C)c1ccc2cc(/C=C(\C#N)C(=O)NCCCCCCCl)sc2c1` [Probe 67], for which the “The quantum yield of the free probe” value in data set [1] is recorded as under 0.001. Also, in the data set on HaloTag protein tag, the “The quantum yield after binding to Halo-tag” value was determined as 0.48, the Fluorescence enhancement was 576 and the Emission/nm came out at 580 nm. Also, the ratio in data set [2] was 276.
Taken in the same sequence, the figures for `CN(CCOC(=O)NCCOCCOCCCCCCCl)c1ccc(/C=C(\C#N)c2nc3ccccc3o2)cc1` [Probe 2] were 0.001, 0.48, 410, 510 nm and 410.
In the case of `CN(CCOC(=O)NCCOCCOCCCCCCCl)c1ccc(C2=C(C#N)C(=C(C#N)C#N)OC2(C)C)cc1` [Probe 8], the “The quantum yield of the free probe” value in data set [1] is 0.0018. In addition, in the data set with HaloTag protein tag, the “The quantum yield after binding to Halo-tag” value is on record as 0.47, the Fluorescence enhancement is given as 296 and the Emission/nm is 535 nm. Besides, the ratio in data set [2] amounted to 320.
On the same counts, the results for `COCCNC(=O)/C(C#N)=C/c1ccc(-c2ccc(N(C)CCOC(=O)NCCOCCOCCCCCCCl)cc2)o1` [Probe 34] are under 0.001, 0.32, 857, 615 nm and 1774.
As to `CC(C)(C)OC(=O)/C(C#N)=C/c1ccc(N(CCOC(=O)NCCCS(=O)(=O)[O-])CCOC(=O)NCCOCCOCCCCCCCl)cc1.[Na+]` [Probe5], the “The quantum yield of the free probe” value in data set [1] is on record as under 0.001. In the data set with HaloTag protein tag, the “The quantum yield after binding to Halo-tag” value is recorded as 0.46, the Fluorescence enhancement came to 1174 and the Emission/nm turned out to be 480 nm. In addition, the ratio in data set [2] was 790.
With `CN(CCOC(=O)NCCOCCOCCCCCCCl)c1cc2sc(/C=C(\C#N)C(=O)OC(C)(C)C)cc2s1` [Probe 10], the “The quantum yield of the free probe” value in data set [1] is recorded as under 0.001. Further, in the data set with HaloTag protein tag, the “The quantum yield after binding to Halo-tag” value was found to be 0.42, the Fluorescence enhancement came out at 431 and the Emission/nm was 550 nm. Further, the ratio in data set [2] is 655.
Turning to `CN(CCOC(=O)NCCOCCOCCCCCCCl)c1ccc(-c2ccc(/C=C(\C#N)C(=O)OC(C)(C)C)s2)cc1` [Probe 33], the “The quantum yield of the free probe” value in data set [1] was under 0.001. In the data set on HaloTag protein tag, the “The quantum yield after binding to Halo-tag” value worked out at 0.47, the Fluorescence enhancement is reported as 957 and the Emission/nm stood at 620 nm. For the same molecule, in data set [2], the ratio came out at 1781.
Turning to `CN(CCOC(=O)NCCOCCOCCCCCCCl)c1ccc(-c2ccc(/C=C(\C#N)C(=O)O)s2)cc1` [Probe 35], in data set [1], the “The quantum yield of the free probe” value amounted to 0.0012. In the data set with HaloTag protein tag, the “The quantum yield after binding to Halo-tag” value is recorded as 0.45, the Fluorescence enhancement came out at 433 and the Emission/nm came to 618 nm. Besides, the ratio in data set [2] worked out at 972.
For the molecule `CN(C)c1ccc2nc(/C=C(\C#N)C(=O)OCCOCCOCCCCCCCl)sc2c1` [Probe 72], the “The quantum yield of the free probe” value in data set [1] turned out to be 0.001. In the data set on HaloTag protein tag, the “The quantum yield after binding to Halo-tag” value is 0.47, the Fluorescence enhancement was 486 and the Emission/nm was 640 nm. Besides, the ratio in data set [2] is listed as 268.
Regarding `CN(CCOC(=O)NCCOCCOCCCCCCCl)c1ccc(C#C/C=C(\C#N)C(=O)OC(C)(C)C)cc1` [Probe 28], the “The quantum yield of the free probe” value in data set [1] is under 0.001. Further, in the data set with HaloTag protein tag, the “The quantum yield after binding to Halo-tag” value is listed as 0.41, the Fluorescence enhancement came out at 551 and the Emission/nm was determined as 566 nm. Also, the ratio in data set [2] was found to be 1132.
`CN(CCO)c1ccc(/C=C(\C#N)C(=O)NCCOCCOCCCCCCCl)cc1` [Probe 58]: the “The quantum yield of the free probe” value in data set [1] is under 0.001. In the data set with HaloTag protein tag, the “The quantum yield after binding to Halo-tag” value is 0.58, the Fluorescence enhancement is reported as 519 and the Emission/nm is 480 nm. Besides, the ratio in data set [2] is 419.
For the molecule `CN(CCOC(=O)NCCOCCOCCCCCCCl)c1cc2c(s1)-c1sc(C=C(C#N)C#N)cc1[Si]2(C)C` [Probe 37], the “The quantum yield of the free probe” value in data set [1] is recorded as 0.0012. In the data set on HaloTag protein tag, the “The quantum yield after binding to Halo-tag” value was determined as 0.56, the Fluorescence enhancement is listed as 469 and the Emission/nm is given as 655 nm. Also, in data set [2], the ratio is 1135.
On the same counts, the results for `CN(CCOC(=O)NCCOCCOCCCCCCCl)c1ccc2nc(/C=C(\C#N)c3nc4ccccc4o3)oc2c1` [Probe 20] are under 0.001, 0.47, 612, 640 nm and 341.
As for `CN(CCOC(=O)NCCOCCOCCCCCCCl)c1ccc(/C=C(\C#N)c2nc3ccccc3s2)cc1` [Probe 3], in data set [1], the “The quantum yield of the free probe” value amounted to 0.0011. In the data set on HaloTag protein tag, the “The quantum yield after binding to Halo-tag” value is listed as 0.45, the Fluorescence enhancement amounted to 512 and the Emission/nm was 515 nm. The ratio in data set [2] is listed as 399.
As to `CN(CCOC(=O)NCCOCCOCCCCCCCl)c1ccc(/C=C(\C#N)C(=O)O)cc1` [Probe 9], in data set [1], the “The quantum yield of the free probe” value is given as under 0.001. In addition, in the data set with HaloTag protein tag, the “The quantum yield after binding to Halo-tag” value was found to be 0.50, the Fluorescence enhancement is 745 and the Emission/nm stood at 480 nm. The ratio in data set [2] was determined as 851.
`CN(CCOC(=O)NCCOCCOCCCCCCCl)c1ccc2c(c1)sc1cc(/C=C(\C#N)C(=O)OC(C)(C)C)sc12` [Probe 32]: in data set [1], the “The quantum yield of the free probe” value was under 0.001. Also, in the data set with HaloTag protein tag, the “The quantum yield after binding to Halo-tag” value is 0.46, the Fluorescence enhancement was found to be 638 and the Emission/nm is on record as 609 nm. In data set [2], the ratio came out at 997.
As to `CC(C)(C)OC(=O)/C(C#N)=C/c1ccc(N(CCO)CCOC(=O)NCCOCCOCCCCCCCl)cc1` [Probe 4], in data set [1], the “The quantum yield of the free probe” value is reported as under 0.001. Besides, in the data set on HaloTag protein tag, the “The quantum yield after binding to Halo-tag” value is 0.42, the Fluorescence enhancement was 490 and the Emission/nm is 480 nm. In addition, the ratio in data set [2] is given as 562.
As for `CN(CCOC(=O)NCCOCCOCCCCCCCl)c1ccc2nc(/C=C(\C#N)c3nc4ccccc4o3)ccc2c1` [Probe 27], the “The quantum yield of the free probe” value in data set [1] was under 0.001. For the same molecule, in the data set on HaloTag protein tag, the “The quantum yield after binding to Halo-tag” value is given as 0.43, the Fluorescence enhancement was 665 and the Emission/nm was found to be 620 nm. In data set [2], the ratio was determined as 1134.
Turning to `CN(CCOC(=O)NCCOCCOCCCCCCCl)c1ccc2cc(/C=C(\C#N)C(=O)O)sc2c1` [Probe 18], the “The quantum yield of the free probe” value in data set [1] is given as 0.0017. Moreover, in the data set with HaloTag protein tag, the “The quantum yield after binding to Halo-tag” value is 0.51, the Fluorescence enhancement was 444 and the Emission/nm is 568 nm. Moreover, the ratio in data set [2] came out at 301.
On to `CN(CCOC(=O)NCCOCCOCCCCCCCl)c1cc2c(s1)-c1sc(/C=C(\C#N)C(=O)O)cc1C2(C)C` [Probe 50], for which, in data set [1], the “The quantum yield of the free probe” value is reported as under 0.001. Moreover, in the data set with HaloTag protein tag, the “The quantum yield after binding to Halo-tag” value was 0.53, the Fluorescence enhancement was found to be 416 and the Emission/nm turned out to be 637 nm. In data set [2], the ratio came to 358.
As to `CN(C)c1ccc2nc(/C=C(\C#N)C(=O)NCCOCCOCCCCCCCl)sc2c1` [Probe 71], the “The quantum yield of the free probe” value in data set [1] is listed as 0.0028. For the same molecule, in the data set on HaloTag protein tag, the “The quantum yield after binding to Halo-tag” value is reported as 0.61, the Fluorescence enhancement was 475 and the Emission/nm is 620 nm. Further, the ratio in data set [2] is 321.
Take `CN(CCOC(=O)NCCOCCOCCCCCCCl)c1ccc2nc(/C=C(\C#N)C(=O)O)sc2c1` [Probe 25]: the “The quantum yield of the free probe” value in data set [1] is reported as under 0.001. Further, in the data set on HaloTag protein tag, the “The quantum yield after binding to Halo-tag” value is on record as 0.51, the Fluorescence enhancement turned out to be 670 and the Emission/nm is 620 nm. In addition, the ratio in data set [2] came to 1621.
Turning to `CN(CCOC(=O)NCCOCCOCCCCCCCl)c1cc2c(s1)-c1sc(/C=C(\C#N)C(=O)OC(C)(C)C)cc1[Si]2(C)C` [Probe 38], the “The quantum yield of the free probe” value in data set [1] is 0.0011. Further, in the data set on HaloTag protein tag, the “The quantum yield after binding to Halo-tag” value is reported as 0.56, the Fluorescence enhancement is reported as 503 and the Emission/nm is 650 nm. In addition, the ratio in data set [2] was 1011.
For `CN(CCOC(=O)NCCOCCOCCCCCCCl)c1ccc2c(c1)C(C)(C)c1cc(/C=C(/C#N)C(=O)OC(C)(C)C)ccc1-2` [Probe 51], the “The quantum yield of the free probe” value in data set [1] is under 0.001. In the data set with HaloTag protein tag, the “The quantum yield after binding to Halo-tag” value is on record as 0.48, the Fluorescence enhancement worked out at 392 and the Emission/nm amounted to 625 nm. For the same molecule, in data set [2], the ratio is recorded as 359.
